Laboratory results: publication PMC2360155, “Novel retinoic acid metabolism blocking agents have potent inhibitory activities on human breast cancer cells and tumour growth” (British Journal of Cancer, 2007)

How the values were obtained:
RARβ = target: T1, RARβ (Mus musculus, UniProt P22605); assay: Transactivation assay (RARE-CAT reporter, CV-1 cells), RARβ; format: cell-based; conditions: 50% of maximal activity obtained with 10^−6 M all-trans-RA
T1 construct: expressed in transfected cells; host or cells: CV-1 cells
T1 sequence (P22605 1-448 isoform P22605-3): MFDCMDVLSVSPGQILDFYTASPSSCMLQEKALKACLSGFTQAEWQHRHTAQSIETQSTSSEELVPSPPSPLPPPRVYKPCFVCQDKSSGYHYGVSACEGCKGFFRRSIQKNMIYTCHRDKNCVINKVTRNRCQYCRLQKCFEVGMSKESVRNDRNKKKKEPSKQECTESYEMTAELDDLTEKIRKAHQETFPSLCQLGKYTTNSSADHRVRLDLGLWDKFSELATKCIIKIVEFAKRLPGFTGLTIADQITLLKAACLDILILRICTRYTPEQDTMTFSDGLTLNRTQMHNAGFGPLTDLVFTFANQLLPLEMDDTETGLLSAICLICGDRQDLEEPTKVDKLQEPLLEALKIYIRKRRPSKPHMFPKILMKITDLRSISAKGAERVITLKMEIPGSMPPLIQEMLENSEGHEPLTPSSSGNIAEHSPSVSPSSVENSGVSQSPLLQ
Procedure: Briefly, CV-1 cells were cotransfected with 4 μg RAR subtype (RARα, RARβ or RARγ) expression vector construct in pSG5, 4 μg RARE-CAT reporter DNA and 1 μg pCMV-β-gal DNA. Twenty-four hours following transfection, the cells were treated with various concentrations of each RAMBA ranging from 10^−11–10^−5 M along with an ethanol carrier control. Additional cells were treated with 10^−6 M all-trans-RA for normalisation. Twenty-four hours later, the cells were harvested and CAT and β-gal activities were assayed.

AP1 activity = assay: Anti-AP1 assay (AP-1 CAT reporter, CV-1 cells cotransfected with RAR subtypes); format: cell-based; conditions: 10^−6 M; each of the three RAR subtypes cotransfected
Procedure: The ability of each RAMBA to inhibit AP1 activity was determined using anti-AP1 assays as we have described previously ([Soprano et al, 2000]). Briefly, CV-1 cells were cotransfected with 1.5 μg RAR subtype (RARα, RARβ and RARγ) expression vector construct in pSG5, 1.5 μg AP-1 CAT reporter DNA and 0.5 μg pCMV-β-gal DNA. […] Twenty-four hours later, the cells were harvested and CAT and β-gal activities were assayed. The percentage of AP-1 activity was calculated using the ethanol carrier control sample as 100%.

PARP = assay: Western immunoblotting for cleaved PARP in MCF-7 cells; format: cell-based, human; conditions: 5 μM, 6 days
Procedure: At the end of the treatment, cells were scrapped and collected by washing with ice-cold PBS in a centrifuge tube. Cells were centrifuged at 2500 r.p.m. for 10 min, the pellet was again washed with ice-cold PBS and centrifuged. The cell pellet was then suspended in chilled cell lysis buffer (0.1 M Tris–HCl, 0.5% Triton X-100, protease inhibitor cocktail) and sonicated on ice for 10–15 s. The homogenate was kept on ice for 30 min and then centrifuged at 13 000 r.p.m. for 30 min. The supernatant was used as cell lysate. The cell lysates were stored at −80°C. Protein concentration of the cell lysates was determined using Bio-Rad protein assay reagents.
Protein lysates from MCF-7 and T47D cells were subjected to sodium dodecyl sulphate–polyacrylamide gel electrophoresis (SDS–PAGE) and immunoblotted for different proteins. […] Immunoreactive bands were visualised using the enhanced chemiluminescence detection reagents and analysis system (Amersham Bioscences) according to the manufacturer's instructions and quantified by densitometry using ImageQuant software version 5.
Figure 7 (A) Western immunoblotting of whole-cell lysates of treated MCF-7 and T47D cells for the expression of Bad. […] Numbers below the blot show fold increase in expression of the protein as analysed by ImageQuant densitometry analysis. […]

Row | Compound | EC50 (RARβ) [nM] | Reduction of AP1-dependent transcription activity (AP1 activity) | Increase in level of cleaved PARP (89 kDa) compared with control (PARP)
1 | CC1=C(/C=C/C(C)=C/C=C/C(C)=C\C(=O)Nc2ccc(O)cc2)C(C)(C)CCC1n1ccnc1 (centres unmarked) [VN/69-1] | > 10000 |  | 
2 | CC1=C(/C=C/C(C)=C/C=C/C(C)=C/C(=O)O)C(C)(C)CCC1n1ccnc1 (centres unmarked) [VN/14-1] | 1500 | 20–40% | almost two-fold increases
3 | CC1=C(/C=C/C(C)=C/C=C/C(C)=C/C(=O)O)C(C)(C)CCC1 [ATRA, all-trans-retinoic acid, reference compound] |  |  | almost two-fold increases
